What was measured:
[1] = system: HeLa cell-implanted BALB/c nude mice xenografts; experiment: Localized anticancer therapy, intratumoral injection; assay type: in vivo; settings: single intratumoral injection, 2.5 mg/kg Dox, day 8
Experimental: All animal experiments were performed in compliance with the relevant laws and institutional guidelines of the Korea Institute of Science and Technology (KIST; KIST-2020-108). To evaluate the anticancer effects of pDNets, tumor-bearing BALB/c nude mice were prepared by injecting a suspension of 5×10^6 cells per mouse. The mice were divided into five groups (n=5): (1) PBS, (2) free DOX, (3) pDNet-H, (4) pDNet-M, and (5) pDNet-L. Each mouse was injected intratumorally with 2.5 mg/kg Dox when the size of the tumors was approximately 100-150 mm ^3. The tumor volumes and body weights of each mouse were observed every 2 days for 8 days. The length (L) and width (W) of the tumors were measured, and tumor volumes (V) were calculated using the following formula: V=L×W^2×0.52. To assess the biocompatibility of the pDNets, mice in each group were sacrificed after 8 days and the major organs were excised. To assess the biosafety of pDNets, the excised organs were paraffin-embedded and cut into 5 μm sections. Hematoxylin and eosin (H&E) staining was performed to observe the histopathological changes.

HeLa cells = experiment: Cytotoxicity of released Dox, MTT assay; assay type: cell-based; settings: HeLa cells treated 24 h with Dox-released incubation solutions of pH 5.0, 6.4, 7.4
Experimental: Cell adhesion efficiencies were evaluated by incubating GelRed-labeled pDNets in cell media containing 2.5×10^5 Hela or NIH/3T3 cells for an hour. After the incubation, Calcein AM was used to stain the attached cells and the pDNets were washed three times with PBS. After staining, CLSM was used to visualize the respective fluorescence to determine the number of cells attached to each pDNet/mm^2. Evaluation of intracellular delivery of released Dox from pDNets was performed by loading pDNets with 20 nmol Dox. Dox-loaded pDNets were incubated in a pH 5.0, 6.4, and […] PBS solution for 32 h, which were then diluted 1, 2, and 4-fold with Dulbecco's modified Eagle's medium and used to treat 1×10^5 HeLa cells for 2 h. As a positive control, 20 nmol free Dox diluted similarly was used for treatment at final concentrations of 2, 4, and 8 μM to represent complete release of Dox. After the incubation, cell nuclei were stained with Hoechst and the intracellular delivery of Dox was compared using CLSM. […] After 24 h of treatment, cell viability was quantified using the MTT assay (Roche Diagnostics, Mannheim, Germany) following the manufacturer's protocol. […] The resulting formazan salts were dissolved by adding dimethyl sulfoxide, and the absorbance was measured at 570 nm using a multi-label microplate reader (Victor X5; Perkin Elmer).

COc1cccc2c1C(=O)c1c(O)c3c(c(O)c1C2=O)C[C@@](O)(C(=O)CO)C[C@@H]3O[C@H]1C[C@H](N)[C@H](O)[C@H](C)O1 [free Dox, doxorubicin]
tumor volume reduction relative to the control group [1]: ~35%
tumor weight reduction relative to the control group [1]: ~35%
in vitro therapeutic effect (cell viability, MTT) (HeLa cells): most effective in vitro

Source: US20230381322A1, “METHOD FOR PREPARING A DNA NETWORK WITH CONTROLLED CRYSTAL STRUCTURE AND A METHOD FOR INJECTING DRUGS USING THE DNA NETWORK” (UIF (University Industry Foundation), Yonsei University, priority 2022, published 2023)
